Test results taken from article PMC11836371, “Virtual fragment screening for DNA repair inhibitors in vast chemical space” (Nature Communications, 2025).
Several values for one entry are separate records, joined by “and”; a condition that tells them apart may be missing. Equal entries are not always repeated. Where two headings read alike, the source gives them in different places.

Assays:
[1] = test system: A2780 cells; assay: Cancer cell viability assay (resazurin), A2780; assay type: cell-based; set-up: key to cell viability, cytotoxicity curve (Figure3H): % viability relative to untreated control wells
Method: (§1) Three different cancer cell lines A2780 (ovarian cancer, ECACC 93112519), A549 (lung cancer, ATCC 60150896) and HCT116 (colon cancer, ATCC CCL-247), and one immortalized fibroblast cell line (BJhTERT) as control, were seeded in black/clear 384-well plates (Corning #3764), 50 µL/well, containing 11 concentrations, nano-dispensed, dose-response curves of the test compounds. A2780, HCT116, and HEK293T cell lines were authenticated with STR profiling, frozen down, and these stocks were used in experiments. The A2780 cells were cultured in RPMI 1640, the A549 and BJhTERT cells in DMEM, and the HCT116 cells in McCoys 5 A medium. All media were supplemented with 10% FBS and 1% P/S. All cell culture media, additives, and reagents were purchased from Thermo Fisher Scientific. The cell plates were incubated 72 hours in a humidified incubator at 37 °C with 5% CO2, after which resazurin (Sigma-Aldrich), 10 µL/well, was added to a final concentration of 10 µg/mL. The plates were incubated for 6 hours with resazurin followed by fluorescence readings in a Sense plate reader (Hidex), resorufin protocol (ex 544 nm/em 595 nm). The cell viability was calculated compared to untreated control wells and the EC50 values were determined in XLfit (IDBS).

[2] = test system: A549 cells; assay: Cancer cell viability assay (resazurin), A549; assay type: cell-based; conditions: two independent experiments
Method: as §1

[3] = test system: HCT116 cells; assay: Cancer cell viability assay (resazurin), HCT116; assay type: cell-based; conditions: two independent experiments
Method: as §1

[4] = Cell viability assay (resazurin), BJhTERT non-transformed control; assay type: cell-based; set-up: key to cell viability, cytotoxicity curve (Figure3H): % viability relative to untreated control wells; conditions: human, BJhTERT; for viability at 72 h, 5.12861e-09 M: Log conc. (M) 5.12861e-9; for viability at 72 h, 1.51356e-08 M: Log conc. (M) 1.51356e-8; for viability at 72 h, 4.57088e-08 M: Log conc. (M) 4.57088e-8; for viability at 72 h, 1.38038e-07 M: Log conc. (M) 1.38038e-7; for viability at 72 h, 4.0738e-07 M: Log conc. (M) 4.0738e-7; for viability at 72 h, 1.23027e-06 M: Log conc. (M) 1.23027e-6; for viability at 72 h, 3.31131e-05 M: Log conc. (M) 3.31131e-5; for viability at 72 h, 0.0001 M: Log conc. (M) 0.0001
Method: (§2) A2780, HCT116, and HEK293T cell lines were authenticated with STR profiling, frozen down, and these stocks were used in experiments. […] All media were supplemented with 10% FBS and 1% P/S. All cell culture media, additives, and reagents were purchased from Thermo Fisher Scientific. The cell plates were incubated 72 hours in a humidified incubator at 37 °C with 5% CO2, after which resazurin (Sigma-Aldrich), 10 µL/well, was added to a final concentration of 10 µg/mL. […] The cell viability was calculated compared to untreated control wells and the EC50 values were determined in XLfit (IDBS).

[5] = test system: BJhTERT cells; assay: as above; assay type: cell-based; set-up: key to cell viability, cytotoxicity curve (Figure3H): % viability relative to untreated control wells
Method: as §2

[6] = biological target: T1, human OGG1 enzyme (Homo sapiens, UniProt O15527); assay: OGG1 glycosylase activity assay (enzyme inhibition, APE1-coupled fluorescence); assay type: biochemical; conditions: read-out: IC50
[7] = biological target: T1, human OGG1 enzyme; assay: Differential scanning fluorimetry (DSF) thermal shift assay; assay type: binding; set-up: ∆Tm (K): unit of the concentration uncertain
Method: The temperature was increased from 20 °C to 85 °C with 10 readings/degree. Tm values were calculated using an excel template and fitting to the Boltzmann equation in Prism v.6.07 (GraphPad Software).

[8] = Caco-2 cell permeability assay; assay type: in vitro ADME; conditions: human, Caco-2, pH 7.4
Method: Prior to the experiment a drug solution of 10 µM was prepared and warmed to 37 °C. The Caco-2 filters were washed with pre-warmed HBSS prior to the experiment, and thereafter the experiment was started by applying the donor solution on the apical or basolateral side. The transport experiments were carried out at pH 7.4 in both the apical and basolateral chamber. The experiments were performed at 37 °C and with a stirring rate of 500 rpm. The receiver compartment was sampled at 15, 30, and 60 min, and at 60 min also a final sample from the donor chamber was taken to calculate the mass balance of the compound. The samples (100 µL) were transferred to a 96-well plate containing 100 µL methanol and Warfarin as IS and was sealed until analyzed by liquid chromatography coupled to triple quadrupole mass spectrometry (LC-MS/MS).

[9] = Thermodynamic solubility; assay type: physicochemical; conditions: thermodynamic from solid
[10] = A2780, Log conc. (M) 1.69824e-9
[11] = A2780, Log conc. (M) 5.12861e-9
[12] = A2780, Log conc. (M) 1.51356e-8
[13] = A2780, Log conc. (M) 4.57088e-8
[14] = A2780, Log conc. (M) 1.38038e-7
[15] = A2780, Log conc. (M) 1.23027e-6
[16] = A2780, Log conc. (M) 3.71535e-6
[17] = A2780, Log conc. (M) 1.12202e-5
[18] = A2780, Log conc. (M) 3.31131e-5
[19] = read-out: cell viability, cytotoxicity curve (Figure3H)
[20] = BJhTERT, Log conc. (M) 1.69824e-9
[21] = BJhTERT, Log conc. (M) 5.12861e-9
[22] = BJhTERT, Log conc. (M) 1.51356e-8
[23] = BJhTERT, Log conc. (M) 4.57088e-8
[24] = BJhTERT, Log conc. (M) 1.38038e-7
[25] = BJhTERT, Log conc. (M) 4.0738e-7
[26] = BJhTERT, Log conc. (M) 1.23027e-6
[27] = BJhTERT, Log conc. (M) 3.71535e-6
[28] = BJhTERT, Log conc. (M) 1.12202e-5
[29] = BJhTERT, Log conc. (M) 3.31131e-5
[30] = BJhTERT immortalized fibroblast cells, read-out: cell viability, cytotoxicity curve (Figure3H)

T1 sequence (O15527 whole entry): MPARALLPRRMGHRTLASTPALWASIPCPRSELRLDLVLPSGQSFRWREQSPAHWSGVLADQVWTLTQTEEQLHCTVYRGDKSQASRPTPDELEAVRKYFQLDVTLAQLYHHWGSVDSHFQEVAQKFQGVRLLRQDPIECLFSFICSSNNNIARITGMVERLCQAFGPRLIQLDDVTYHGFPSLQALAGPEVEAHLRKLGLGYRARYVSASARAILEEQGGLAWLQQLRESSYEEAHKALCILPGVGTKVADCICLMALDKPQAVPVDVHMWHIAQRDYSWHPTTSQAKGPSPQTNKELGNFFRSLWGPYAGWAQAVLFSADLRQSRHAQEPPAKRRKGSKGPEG

## Nc1nn(-c2ccc(CC(=O)Nc3noc4c3CCCC4)cc2)c2ccccc12 [compound 11]
[1]; A2780, 100 μM, two independent experiments, 100 µM
  percentage cell viability: 1.69%
[1]; [10]
  cell viability, cytotoxicity curve (Figure3H): 91.8 and 117.36
[1]; [11]
  cell viability, cytotoxicity curve (Figure3H): 99.13 and 112.7
[1]; [12]
  cell viability, cytotoxicity curve (Figure3H): 105.26 and 125.33
[1]; [13]
  cell viability, cytotoxicity curve (Figure3H): 93.79 and 108.52
[1]; [14]
  cell viability, cytotoxicity curve (Figure3H): 82.27 and 122.21
[1]; A2780, Log conc. (M) 4.0738e-7
  cell viability, cytotoxicity curve (Figure3H): 73.45 and 78.71
[1]; [15]
  cell viability, cytotoxicity curve (Figure3H): 82.77 and 87.65
[1]; [16]
  cell viability, cytotoxicity curve (Figure3H): 59.52 and 70.03
[1]; [17]
  cell viability, cytotoxicity curve (Figure3H): 22.19 and 22.95
[1]; [18]
  cell viability, cytotoxicity curve (Figure3H): 6.15 and 7.44
[1]; A2780, Log conc. (M) 0.0001
  cell viability, cytotoxicity curve (Figure3H): 1.69
[1]; Homo sapiens, A2780, A2780, 100 μM, two independent experiments, read-out: percentage cell viability
  viability at 100 µM: 1.43%
[1]; Homo sapiens, A2780 cancer cells, 72 h, read-out: EC50 (loss of viability)
  EC50: 5.4 µM
[2]; A549, 100 μM, 100 µM
  percentage cell viability: 21.3%
[2]; Homo sapiens, A549, A549, 100 μM, read-out: percentage cell viability
  viability at 100 µM: 17.2%
[3]; HCT116, 100 μM, 100 µM
  percentage cell viability: 20.29%
[3]; Homo sapiens, HCT-116, HCT116, 100 μM, read-out: percentage cell viability
  viability at 100 µM: 20%
[4]; 100 μM, two independent experiments, read-out: percentage cell viability
  viability at 72 h, 100 µM: 38.2%
[4]; [19]
  viability at 72 h, 5.12861e-09 M: 94.3%
  viability at 72 h, 1.51356e-08 M: 81.4%
  viability at 72 h, 4.57088e-08 M: 92%
  viability at 72 h, 1.38038e-07 M: 101%
  viability at 72 h, 4.0738e-07 M: 79.8%
  viability at 72 h, 1.23027e-06 M: 87.1%
  viability at 72 h, 3.31131e-05 M: 71%
  viability at 72 h, 0.0001 M: 38.2%
[4]; Log conc. (M) 3.71535e-6, read-out: cell viability, cytotoxicity curve (Figure3H)
  viability at 72 h, 3.71535e-06 M: 84%
[4]; Log conc. (M) 1.12202e-5, read-out: cell viability, cytotoxicity curve (Figure3H)
  viability at 72 h, 1.12202e-05 M: 89.3%
[5]; BJhTERT, 100 μM, two independent experiments
  percentage cell viability: 40.28%
[5]; [20]
  cell viability, cytotoxicity curve (Figure3H): 80.73 and 114.45
[5]; [21]
  cell viability, cytotoxicity curve (Figure3H): 111.95
[5]; [22]
  cell viability, cytotoxicity curve (Figure3H): 93.48
[5]; [23]
  cell viability, cytotoxicity curve (Figure3H): 99.27
[5]; [24]
  cell viability, cytotoxicity curve (Figure3H): 112.5
[5]; [25]
  cell viability, cytotoxicity curve (Figure3H): 95.56
[5]; [26]
  cell viability, cytotoxicity curve (Figure3H): 91.5
[5]; [27]
  cell viability, cytotoxicity curve (Figure3H): 96.04
[5]; [28]
  cell viability, cytotoxicity curve (Figure3H): 108.1
[5]; [29]
  cell viability, cytotoxicity curve (Figure3H): 71.45
[5]; BJhTERT, Log conc. (M) 0.0001
  cell viability, cytotoxicity curve (Figure3H): 40.28
[5]; non-transformed cells (BJhTERT), 72 h, read-out: EC50 (loss of viability)
  EC50: > 70 µM

## O=C(Nc1ccc(I)cc1)N1CCC(n2c(=O)[nH]c3c(Br)cccc32)CC1 [TH5487, reference compound]
[6]
  IC50: 0.34 µM
[7]; 495 µM
  ∆Tm (K): 4.3 K
[7]; 495 (unit uncertain) as printed in sheet footnote
  ∆Tm (K): 4.3 K
[7]; concentration not given
  ΔTm: 4.3 K
[1]; [10]
  cell viability, cytotoxicity curve (Figure3H): 121.27 and 94.15
[1]; [11]
  cell viability, cytotoxicity curve (Figure3H): 114.3 and 105.95
[1]; [12]
  cell viability, cytotoxicity curve (Figure3H): 105.54 and 93.28
[1]; [13]
  cell viability, cytotoxicity curve (Figure3H): 111.22 and 83.28
[1]; [14]
  cell viability, cytotoxicity curve (Figure3H): 102.55 and 80.89
[1]; A2780, Log conc. (M) 4.0738e-7
  cell viability, cytotoxicity curve (Figure3H): 93.7 and 80.77
[1]; [15]
  cell viability, cytotoxicity curve (Figure3H): 109.2 and 106.39
[1]; [16]
  cell viability, cytotoxicity curve (Figure3H): 104.11 and 96.04
[1]; [17]
  cell viability, cytotoxicity curve (Figure3H): 67.93 and 61.64
[1]; [18]
  cell viability, cytotoxicity curve (Figure3H): 4.85 and 2.91
[1]; A2780, Log conc. (M) 0.0001
  cell viability, cytotoxicity curve (Figure3H): 1.49 and 1.08
[4]; BJhTERT immortalized fibroblast cells, Log conc. (M) 1.69824e-9, read-out: cell viability, cytotoxicity curve (Figure3H)
  viability at 72 h, 1.69824e-09 M: 74.4%
[4]; [30]
  viability at 72 h, 5.12861e-09 M: 72.6%
  viability at 72 h, 1.51356e-08 M: 78%
  viability at 72 h, 4.57088e-08 M: 84%
  viability at 72 h, 1.38038e-07 M: 81.8%
  viability at 72 h, 4.0738e-07 M: 80.5%
  viability at 72 h, 1.23027e-06 M: 81.8%
  viability at 72 h, 3.31131e-05 M: 47%
  viability at 72 h, 0.0001 M: 5.37%
[5]; [20]
  cell viability, cytotoxicity curve (Figure3H): 92.09
[5]; [21]
  cell viability, cytotoxicity curve (Figure3H): 85.03
[5]; [22]
  cell viability, cytotoxicity curve (Figure3H): 85.22
[5]; [23]
  cell viability, cytotoxicity curve (Figure3H): 94.5
[5]; [24]
  cell viability, cytotoxicity curve (Figure3H): 96.92
[5]; [25]
  cell viability, cytotoxicity curve (Figure3H): 95.59
[5]; [26]
  cell viability, cytotoxicity curve (Figure3H): 90.96
[5]; [27]
  cell viability, cytotoxicity curve (Figure3H): 95.28 and 121.4
[5]; [28]
  cell viability, cytotoxicity curve (Figure3H): 71.74 and 94.42
[5]; [29]
  cell viability, cytotoxicity curve (Figure3H): 58.03
[5]; BJhTERT, Log conc. (M) 0.0001
  cell viability, cytotoxicity curve (Figure3H): 5.96
[8]; read-out: Papp AB (10–6 cm/s)
  Papp A→B at 60 min, 10 µM: 4.16 ×10⁻⁶ cm/s
[8]; read-out: Papp BA (10–6 cm/s)
  Papp B→A at 60 min, 10 µM: 4.83 ×10⁻⁶ cm/s
[9]
  solubility thermodynamic: < 1 µM
